Experiments:
Assay type in all cases: in vivo
rapeseed = experiment: Test Example 4: effect on crop by soil treatment (symbol g); settings: application herbicide amount 320 g/ha
Procedure, shortened: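 Plants are raised in a greenhouse (25° C. to 30° C.) from spot-sown seed, which sits under about 1.5 cm of sterilized diluvial soil in a box shared with weed species.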

Lolium multiflorum Lam. [1] = experiment: Test Example 5: herbicidal effect by foliage application, plastic box (symbol K); settings: 320 g/ha, 3 weeks after application
Procedure, shortened: (§1)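 Post-emergence spray; diluvial soil (sterilized), ~1.5 cm seed cover; greenhouse 25–30° C; 14-day-old plants; water-diluted emulsion at predetermined dose; visual score at 3 wk post-treatment.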

corn = experiment: Test Example 4: effect on crop by soil treatment (symbol c); settings: application herbicide amount 320 g/ha
Procedure, shortened: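 Sterilized diluvial soil, spot sowing, ~1.5 cm soil cover; greenhouse 25–30° C.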

Stellaria media = experiment: Test Example 5: herbicidal effect by foliage application, plastic box (symbol P); settings: 320 g/ha, 3 weeks after application
Procedure, shortened: as §1

Avena fatua = experiment: Test Example 4: herbicidal effect by soil treatment (symbol I); settings: application herbicide amount 320 g/ha
Procedure, shortened: (§2)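 Seeds were sown in sterilized diluvial soil, covered with about 1.5 cm of soil, and the soil surface was sprayed with a water-diluted emulsion of the compound at a predetermined rate. Plants grew in a greenhouse at 25° C. to 30° C.; effects were scored visually 3 weeks after application.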

Abutilon theophrasti = experiment: Test Example 5: herbicidal effect by foliage application, plastic box (symbol M); settings: 320 g/ha, 3 weeks after application
Procedure, shortened: as §1

Amaranthus retroflexus = experiment: Test Example 5: herbicidal effect by foliage application, plastic box (symbol N); settings: 320 g/ha, 3 weeks after application
Procedure, shortened: as §1

Alopecurus myosuroides = experiment: Test Example 4: herbicidal effect by soil treatment (symbol J); settings: application herbicide amount 320 g/ha
Procedure, shortened: as §2

Lolium multiflorum Lam. [2] = experiment: Test Example 4: herbicidal effect by soil treatment (symbol K); settings: application herbicide amount 320 g/ha
Procedure, shortened: as §2

Veronica persica [3] = experiment: Test Example 5: herbicidal effect by foliage application, plastic box (symbol R); settings: 320 g/ha, 3 weeks after application
Procedure, shortened: as §1

Setaria viridis = experiment: Test Example 5: herbicidal effect by foliage application, plastic box (symbol G); settings: 320 g/ha, 3 weeks after application
Procedure, shortened: as §1

Veronica persica [4] = experiment: Test Example 4: herbicidal effect by soil treatment (symbol R); settings: application herbicide amount 320 g/ha
Procedure, shortened: as §2

rice plant = experiment: Test Example 5: effect on crop by foliage application, plastic box (symbol b); settings: 320 g/ha, 3 weeks after application
Procedure, shortened: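 Seeds were sown in spots in sterilized diluvial soil held in a plastic box 21 cm × 13 cm × 7 cm deep, covered with about 1.5 cm of soil, and grown in a greenhouse at 25° C. to 30° C.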

[5] = test system: Echinochloa crus-galli var. crus-galli; experiment: Test Example 4: herbicidal effect by soil treatment (symbol H); settings: application herbicide amount 320 g/ha
Procedure, shortened: as §2

| Structure (SMILES) | Effect on crop grade, g: rapeseed (rapeseed) | K: Lolium multiflorum Lam., herbicidal effect (criteria of Test Example 1) (Lolium multiflorum Lam. [1]) | Effect on crop grade, c: corn (corn) | P: Stellaria media, herbicidal effect (criteria of Test Example 1) (Stellaria media) | Herbicidal effect grade, I: Avena fatua (Avena fatua) | M: Abutilon theophrasti, herbicidal effect (criteria of Test Example 1) (Abutilon theophrasti) | N: Amaranthus retroflexus, herbicidal effect (criteria of Test Example 1) (Amaranthus retroflexus) | Herbicidal effect grade, J: Alopecurus myosuroides (Alopecurus myosuroides) | Herbicidal effect grade, K: Lolium multiflorum Lam. (Lolium multiflorum Lam. [2]) | R: Veronica persica, herbicidal effect (criteria of Test Example 1) (Veronica persica [3]) | G: Setaria viridis, herbicidal effect (criteria of Test Example 1) (Setaria viridis) | Herbicidal effect grade, R: Veronica persica (Veronica persica [4]) | b: directly sowed rice plant, effect on crop (criteria of Test Example 1) (rice plant) | Herbicidal effect grade, H: Echinochloa crus-galli var. crus-galli [5] |
| --- | --- | --- | --- | --- | --- | --- | --- | --- | --- | --- | --- | --- | --- | --- |
| CC(=O)CC1CC(O)=C(c2c(C)cc(-c3ncccn3)cc2C)C1=O (stereo not shown) [7-017] | 0 (Herbicidal ratio of 5% or lower (almost no effect)) | 3 (Herbicidal ratio of 40% or higher and lower than 70%) | 0 (Herbicidal ratio of 5% or lower (almost no effect)) | 0 (Herbicidal ratio of 5% or lower (almost no effect)) | 0 (Herbicidal ratio of 5% or lower (almost no effect)) | 0 (Herbicidal ratio of 5% or lower (almost no effect)) | 0 (Herbicidal ratio of 5% or lower (almost no effect)) | 0 (Herbicidal ratio of 5% or lower (almost no effect)) | 0 (Herbicidal ratio of 5% or lower (almost no effect)) | 0 (Herbicidal ratio of 5% or lower (almost no effect)) | 5 (Herbicidal ratio of 90% or more (almost completely withered)) | 0 (Herbicidal ratio of 5% or lower (almost no effect)) | 5 (Herbicidal ratio of 90% or more (almost completely withered)) | 0 (Herbicidal ratio of 5% or lower (almost no effect)) |
| CC(=O)CC1CC(O)=C(c2c(C)cc(-c3ccc(OC(F)(F)F)cc3)cc2C)C1=O (stereo not shown) [7-016] | 0 (Herbicidal ratio of 5% or lower (almost no effect)) | 0 (Herbicidal ratio of 5% or lower (almost no effect)) | 0 (Herbicidal ratio of 5% or lower (almost no effect)) | 0 (Herbicidal ratio of 5% or lower (almost no effect)) | 0 (Herbicidal ratio of 5% or lower (almost no effect)) | 0 (Herbicidal ratio of 5% or lower (almost no effect)) | 0 (Herbicidal ratio of 5% or lower (almost no effect)) | 0 (Herbicidal ratio of 5% or lower (almost no effect)) | 0 (Herbicidal ratio of 5% or lower (almost no effect)) | 0 (Herbicidal ratio of 5% or lower (almost no effect)) | 1 (Herbicidal ratio of 5% or higher and lower than 20%) | 0 (Herbicidal ratio of 5% or lower (almost no effect)) | 0 (Herbicidal ratio of 5% or lower (almost no effect)) | 2 (Herbicidal ratio of 20% or higher and lower than 40%) |
